What was measured:
[1] = test system: rat's learning and memory abilities of scopolamine model; assay: Platform jumping test, rat dysmnesia model induced by scopolamine; format: in vivo, SD rats; conditions: intragastric for 2 weeks, LHG 30 mg/Kg, Donepezil 1 mg/Kg, scopolamine 5 mg/Kg i.p.
Protocol: Grouping and dose: blank control group, scopolamine model group (SCOP), positive control group:(Donepezil, 1 mg/Kg), LHG drug group (30 mg/Kg). Administration: intragastric administration. […] Morris training on Day 9 (2 times per day). Morris water maze test and platform jumping test on Day 14. Platform jumping test: Learning and training on the first day, the repeated tests were conducted on the second day. Rats of scopolamine model group, positive control group and LHG drug group were injected with scopolamine hydrobromide through peritoneal cavity (5 mg/Kg) at 20 minutes before the test, while rats of blank control group were injected with equal volume of normal saline through peritoneal cavity. The incubation time of jumping off the platform for the first time (SDL) and the incubation time of avoiding electric shock (EL) were recorded.

[2] = test system: rat's learning and memory abilities of scopolamine model; assay: Morris water maze test, rat dysmnesia model induced by scopolamine; format: in vivo, SD rats; conditions: intragastric for 2 weeks, LHG 30 mg/Kg, Donepezil 1 mg/Kg; scopolamine i.p.
Protocol: Grouping and dose: blank control group, scopolamine model group (SCOP), positive control group:(Donepezil, 1 mg/Kg), LHG drug group (30 mg/Kg). Administration: intragastric administration. […] Morris training on Day 9 (2 times per day). Morris water maze test and platform jumping test on Day 14. Modeling method and test of learning and memory: on the day of the test, rats of scopolamine model group, positive control group and LHG drug group were injected with scopolamine hydrobromide through peritoneal cavity (firstly injection dose is 2 mg/Kg for 2 days, then injection dose is 2 mg/Kg on Day 3) at 30 minutes after intragastric administration, while rats of blank control group were injected with equal volume of normal saline through peritoneal cavity. Morris water maze test was conducted at 20 minutes after injection. The route, time and speed of the rats in the 90s were recorded automatically with computer by the camera tracking on the swimming performance of the rats, then the escaping-incubation time of seeking the platform and swimming distance were calculated.

[3] = test system: xylene inducing murine auricle swelling; assay: Xylene inducing murine auricle swelling (anti-inflammation effect); format: in vivo; conditions: mice, subcutaneous injection 0.01 mL/1 g for 5 days (LHG 100 mg/mL, dexamethasone 50 mg/mL), 1 h after xylene
Protocol: Drug preparation: LHG was added in ionized water to obtain 100 mg/mL LHG solution. Positive contrast: dexamethasone was added in ionized water to obtain 50 mg/mL dexamethasone solution. Blank contrast: ionized water.
Administration: sub cutaneous injection.
Experimental process: healthy mice are randomly divided into three groups (six in each group, half male and half female), name as LHG drug group, positive control group and blank control group. Three groups' mice were injected with 0.01 mL/1 g of LHG, dexamethasone and ionized water respectively. Drug was administered continuously for 5 days. 30 μL of xylenes was evenly smeared on both sides of the right ear of the mice to induce inflammation at 30 min after the last administration. The left ear was used as the reference. At 1 h after inducing inflammation, mice were executed by removing cervical vertebra. The ear pieces of the same part in the left and right ears were obtained with a hole punter, then the auricle swelling rate and inhibition rate of auricle swelling were calculated by weighing with an analytical balance.

## COc1cc2c(cc1OC)C(=O)C(CC1CCN(Cc3ccccc3)CC1)C2 (stereo not drawn) [Donepezil]
[1]; EL
  Incubation time of avoiding electric shock: 115.28 ± 17.54 s
[1]; SDL
  Incubation time of jumping off the platform for the first time: 48.75 ± 9.84 s
[2]
  Escaping-incubation time: 37.20 ± 12.72 s
  Swimming distance (cm): 1652.25 ± 295.02 cm

## C[C@@H]1C[C@H]2[C@@H]3CCC4=CC(=O)C=C[C@]4(C)[C@@]3(F)[C@@H](O)C[C@]2(C)[C@@]1(O)C(=O)CO [dexamethasone]
[3]
  Auricle swelling rate: 102.9% ± 11.3%
  Inhibition rate of auricle swelling: 24.6%
